In PubChem BioAssay (NCI):
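Briefly, cells in 96-well plates were exposed to five compound concentrations for 48 h, and endpoints were estimated by linear interpolation. The concentration for full growth arrest is given as TGI.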

Legend:
Experiment in all cases: NCI anticancer screen, dose series, 48 h
RXF-631 renal = tested on: RXF-631 renal
CCRF-CEM leukemia = tested on: CCRF-CEM leukemia
HOP-18 NSCLC = tested on: HOP-18 NSCLC
CAKI-1 renal = tested on: CAKI-1 renal
EKVX NSCLC = tested on: EKVX NSCLC
SNB-19 CNS = tested on: SNB-19 CNS
SW-620 colon = tested on: SW-620 colon
SK-MEL-28 melanoma = tested on: SK-MEL-28 melanoma
OVCAR-4 ovarian = tested on: OVCAR-4 ovarian
U251 CNS = tested on: U251 CNS
UO-31 renal = tested on: UO-31 renal
ACHN renal = tested on: ACHN renal
MOLT-4 leukemia = tested on: MOLT-4 leukemia
HCT-15 colon = tested on: HCT-15 colon
SNB-78 CNS = tested on: SNB-78 CNS
M14 melanoma = tested on: M14 melanoma
UACC-62 melanoma = tested on: UACC-62 melanoma
HOP-92 NSCLC = tested on: HOP-92 NSCLC
SF-268 CNS = tested on: SF-268 CNS
OVCAR-3 ovarian = tested on: OVCAR-3 ovarian
K-562 leukemia = tested on: K-562 leukemia
SK-OV-3 ovarian = tested on: SK-OV-3 ovarian
A549 NSCLC = tested on: A549 NSCLC
SK-MEL-5 melanoma = tested on: SK-MEL-5 melanoma
LOX IMVI melanoma = tested on: LOX IMVI melanoma
RXF 393 renal = tested on: RXF 393 renal
A498 renal = tested on: A498 renal
M19-MEL melanoma = tested on: M19-MEL melanoma
KM12 colon = tested on: KM12 colon
RPMI-8226 leukemia = tested on: RPMI-8226 leukemia
DLD-1 colon = tested on: DLD-1 colon
786-0 renal = tested on: 786-0 renal
SN12C renal = tested on: SN12C renal
HCT-116 colon = tested on: HCT-116 colon
NCI-H23 lung = tested on: NCI-H23 lung
OVCAR-5 ovarian = tested on: OVCAR-5 ovarian
OVCAR-8 ovarian = tested on: OVCAR-8 ovarian
HL-60(TB) leukemia = tested on: HL-60(TB) leukemia
SNB-75 CNS = tested on: SNB-75 CNS
HOP-62 NSCLC = tested on: HOP-62 NSCLC
NCI-H460 lung = tested on: NCI-H460 lung
SF-295 CNS = tested on: SF-295 CNS
HCC-2998 colon = tested on: HCC-2998 colon
IGROV1 ovarian = tested on: IGROV1 ovarian
UACC-257 melanoma = tested on: UACC-257 melanoma
MALME-3M melanoma = tested on: MALME-3M melanoma
DMS 273 small cell lung = tested on: DMS 273 small cell lung
SK-MEL-2 melanoma = tested on: SK-MEL-2 melanoma
HT29 colon = tested on: HT29 colon
SF-539 CNS = tested on: SF-539 CNS
DMS 114 small cell lung = tested on: DMS 114 small cell lung
NCI-H226 lung = tested on: NCI-H226 lung
TK-10 renal = tested on: TK-10 renal
COLO 205 colon = tested on: COLO 205 colon
KM20L2 colon = tested on: KM20L2 colon
LXFL 529 NSCLC = tested on: LXFL 529 NSCLC
SR leukemia = tested on: SR leukemia
NCI-H522 lung = tested on: NCI-H522 lung

Structure (SMILES): O=C1CCC(O)=C1N=Nc1cc(Cl)cc(Cl)c1
- TGI (RXF-631 renal): > 100 µM
- TGI (CCRF-CEM leukemia): > 100 µM
- TGI (HOP-18 NSCLC): > 100 µM
- TGI (CAKI-1 renal): > 100 µM
- TGI (EKVX NSCLC): > 100 µM
- TGI (SNB-19 CNS): > 100 µM
- TGI (SW-620 colon): > 100 µM
- TGI (SK-MEL-28 melanoma): > 100 µM
- TGI (OVCAR-4 ovarian): > 100 µM
- TGI (U251 CNS): > 100 µM
- TGI (UO-31 renal): > 100 µM
- TGI (ACHN renal): > 100 µM
- TGI (MOLT-4 leukemia): > 100 µM
- TGI (HCT-15 colon): > 100 µM
- TGI (SNB-78 CNS): > 100 µM
- TGI (M14 melanoma): > 100 µM
- TGI (UACC-62 melanoma): > 100 µM
- TGI (HOP-92 NSCLC): > 100 µM
- TGI (SF-268 CNS): > 100 µM
- TGI (OVCAR-3 ovarian): 98.2 µM
- TGI (K-562 leukemia): > 100 µM
- TGI (SK-OV-3 ovarian): > 100 µM
- TGI (A549 NSCLC): > 100 µM
- TGI (SK-MEL-5 melanoma): > 100 µM
- TGI (LOX IMVI melanoma): > 100 µM
- TGI (RXF 393 renal): > 100 µM
- TGI (A498 renal): 91 µM
- TGI (M19-MEL melanoma): > 100 µM
- TGI (KM12 colon): > 100 µM
- TGI (RPMI-8226 leukemia): > 100 µM
- TGI (DLD-1 colon): > 100 µM
- TGI (786-0 renal): > 100 µM
- TGI (SN12C renal): > 100 µM
- TGI (HCT-116 colon): > 100 µM
- TGI (NCI-H23 lung): > 100 µM
- TGI (OVCAR-5 ovarian): > 100 µM
- TGI (OVCAR-8 ovarian): > 100 µM
- TGI (HL-60(TB) leukemia): > 100 µM
- TGI (SNB-75 CNS): > 100 µM
- TGI (HOP-62 NSCLC): > 100 µM
- TGI (NCI-H460 lung): > 100 µM
- TGI (SF-295 CNS): > 100 µM
- TGI (HCC-2998 colon): > 100 µM
- TGI (IGROV1 ovarian): > 100 µM
- TGI (UACC-257 melanoma): > 100 µM
- TGI (MALME-3M melanoma): > 100 µM
- TGI (DMS 273 small cell lung): > 100 µM
- TGI (SK-MEL-2 melanoma): > 100 µM
- TGI (HT29 colon): > 100 µM
- TGI (SF-539 CNS): > 100 µM
- TGI (DMS 114 small cell lung): > 100 µM
- TGI (NCI-H226 lung): > 100 µM
- TGI (TK-10 renal): > 100 µM
- TGI (COLO 205 colon): > 100 µM

Structure (SMILES): CCOc1cc2c[n+](C)c3c4cc(OC)c(OC)cc4ccc3c2cc1OC
- TGI (RXF-631 renal): 40.1 µM
- TGI (CCRF-CEM leukemia): > 100 µM
- TGI (HOP-18 NSCLC): > 100 µM
- TGI (CAKI-1 renal): > 100 µM
- TGI (EKVX NSCLC): > 100 µM
- TGI (SNB-19 CNS): > 100 µM
- TGI (SW-620 colon): > 100 µM
- TGI (SK-MEL-28 melanoma): > 100 µM
- TGI (OVCAR-4 ovarian): > 100 µM
- TGI (U251 CNS): > 100 µM
- TGI (UO-31 renal): > 100 µM
- TGI (ACHN renal): > 100 µM
- TGI (MOLT-4 leukemia): > 100 µM
- TGI (HCT-15 colon): > 100 µM
- TGI (SNB-78 CNS): > 100 µM
- TGI (KM20L2 colon): > 100 µM
- TGI (M14 melanoma): > 100 µM
- TGI (HOP-92 NSCLC): > 100 µM
- TGI (SF-268 CNS): > 100 µM
- TGI (OVCAR-3 ovarian): > 100 µM
- TGI (K-562 leukemia): > 100 µM
- TGI (A549 NSCLC): > 100 µM
- TGI (SK-MEL-5 melanoma): > 100 µM
- TGI (LOX IMVI melanoma): > 100 µM
- TGI (RXF 393 renal): > 100 µM
- TGI (LXFL 529 NSCLC): > 100 µM
- TGI (M19-MEL melanoma): > 100 µM
- TGI (KM12 colon): > 100 µM
- TGI (RPMI-8226 leukemia): > 100 µM
- TGI (DLD-1 colon): > 100 µM
- TGI (SR leukemia): > 100 µM
- TGI (786-0 renal): 35.1 µM
- TGI (SN12C renal): > 100 µM
- TGI (HCT-116 colon): > 100 µM
- TGI (NCI-H23 lung): > 100 µM
- TGI (OVCAR-5 ovarian): > 100 µM
- TGI (OVCAR-8 ovarian): 32.2 µM
- TGI (HL-60(TB) leukemia): > 100 µM
- TGI (SNB-75 CNS): > 100 µM
- TGI (HOP-62 NSCLC): > 100 µM
- TGI (NCI-H460 lung): > 100 µM
- TGI (SF-295 CNS): > 100 µM
- TGI (NCI-H522 lung): > 100 µM
- TGI (HCC-2998 colon): > 100 µM
- TGI (IGROV1 ovarian): > 100 µM
- TGI (UACC-257 melanoma): > 100 µM
- TGI (MALME-3M melanoma): > 100 µM
- TGI (SK-MEL-2 melanoma): > 100 µM
- TGI (HT29 colon): > 100 µM
- TGI (SF-539 CNS): > 100 µM
- TGI (DMS 114 small cell lung): > 100 µM
- TGI (NCI-H226 lung): > 100 µM
- TGI (TK-10 renal): > 100 µM
- TGI (COLO 205 colon): > 100 µM
